Among the data in patent US11524966B1 (Valo Early Discovery, Inc., priority 2017, dated 2022) are IC50 values, retold here.

For the test, the target named is T1, USP25 (USP25-His6, Boston Biochem E-546) (Homo sapiens, UniProt Q9UHP3).
T1 construct: His6; purchased Boston Biochem E-546
T1 sequence (Q9UHP3 1-1055): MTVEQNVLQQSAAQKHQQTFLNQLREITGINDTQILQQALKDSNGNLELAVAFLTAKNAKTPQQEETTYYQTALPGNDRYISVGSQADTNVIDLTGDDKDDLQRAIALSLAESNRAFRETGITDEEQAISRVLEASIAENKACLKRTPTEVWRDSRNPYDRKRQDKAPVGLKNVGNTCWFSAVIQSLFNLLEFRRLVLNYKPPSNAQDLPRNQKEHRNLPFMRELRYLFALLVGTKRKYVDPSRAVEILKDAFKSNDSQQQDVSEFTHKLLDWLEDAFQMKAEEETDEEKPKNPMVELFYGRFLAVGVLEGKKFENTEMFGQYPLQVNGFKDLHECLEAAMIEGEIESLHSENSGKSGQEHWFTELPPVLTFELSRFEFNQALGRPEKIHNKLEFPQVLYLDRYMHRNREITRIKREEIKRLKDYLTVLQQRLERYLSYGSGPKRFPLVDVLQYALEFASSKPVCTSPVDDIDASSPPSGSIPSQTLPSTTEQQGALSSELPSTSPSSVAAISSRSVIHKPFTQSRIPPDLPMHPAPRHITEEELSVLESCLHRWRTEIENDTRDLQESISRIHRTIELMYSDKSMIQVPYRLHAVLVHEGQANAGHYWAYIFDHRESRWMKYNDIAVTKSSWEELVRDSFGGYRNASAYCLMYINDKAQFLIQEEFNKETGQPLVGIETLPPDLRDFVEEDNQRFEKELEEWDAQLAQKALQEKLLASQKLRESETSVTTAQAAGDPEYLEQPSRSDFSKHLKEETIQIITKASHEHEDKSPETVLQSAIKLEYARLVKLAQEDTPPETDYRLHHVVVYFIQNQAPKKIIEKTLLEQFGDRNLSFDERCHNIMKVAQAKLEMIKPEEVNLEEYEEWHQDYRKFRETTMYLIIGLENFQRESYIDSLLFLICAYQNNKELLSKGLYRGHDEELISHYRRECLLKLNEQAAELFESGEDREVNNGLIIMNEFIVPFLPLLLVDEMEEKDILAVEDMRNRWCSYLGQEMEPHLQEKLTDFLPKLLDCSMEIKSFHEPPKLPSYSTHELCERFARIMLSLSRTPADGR
Put plainly: Ubiquitin-Rhodamine 110 Assay for USP25 Activity, Example A-2. The format is biochemical. The following applies: Ubiquitin-Rhodamine 110 assay, Example A-2; read-out: USP25 A-2 IC50 range. An outline of the steps: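 Read-out: Rh110 fluorescence (ex 485, em 535 nm) after 45 min RT turnover of 25 nM Ub-Rh110 by 75 pM USP25-His6, quenched with 10 mM citric acid. Compounds at 25 μM–1.3 nM, preincubated 30 min with enzyme. IC50 from 4-parameter logistic fit.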

As a reminder, the IC50 is the concentration that gives 50% inhibition. As for `Cc1ccc2c(N)c(C(=O)N[C@H]3COc4cc(N5C[C@@H](N)[C@@]6(CCO6)C5)ccc4C3)sc2n1` [Example 339, 3-amino-N-[(3R)-7-[(4R,8R)-8-amino-1-oxa-6-azaspiro[3.4]octan-6-yl]-3,4-dihydro-2H-1-benzopyran-3-yl]-6-methylthieno[2,3-b]pyridine-2-carboxamide], the IC50 lay within 200 to 2000 nM. The result for `Cc1ccc2c(N)c(C(=O)N[C@H]3COc4cc(N5C[C@H](N)[C@]6(CCO6)C5)ccc4C3)sc2n1` [Example 340, 3-amino-N-[(3R)-7-[(4S,8S)-8-amino-1-oxa-6-azaspiro[3.4]octan-6-yl]-3,4-dihydro-2H-1-benzopyran-3-yl]-6-methylthieno[2,3-b]pyridine-2-carboxamide] reads 200 to 2000 nM.

Turning to `COC[C@@]1(C)CN(c2ccc3c(n2)CC[C@H](NC(=O)c2sc4nc(C)ccc4c2N)C3)C[C@@H]1N` [Example 341, 3-amino-N-[(6S)-2-[(3S,4R)-4-amino-3-(methoxymethyl)-3-methylpyrrolidin-1-yl]-5,6,7,8-tetrahydroquinolin-6-yl]-6-methylthieno[2,3-b]pyridine-2-carboxamide], the half-inhibitory concentration (IC50) lay in the range of 200 to 2000 nM.

Regarding `COC[C@]1(C)CN(c2ccc3c(n2)CC[C@H](NC(=O)c2sc4nc(C)ccc4c2N)C3)C[C@@H]1N` [Example 342, 3-amino-N-[(6S)-2-[(3R,4R)-4-amino-3-(methoxymethyl)-3-methylpyrrolidin-1-yl]-5,6,7,8-tetrahydroquinolin-6-yl]-6-methylthieno[2,3-b]pyridine-2-carboxamide], the half-maximal inhibitory concentration (IC50) lay in the range of 200 to 2000 nM.

In the case of `COC[C@]1(C)CN(c2ccc3c(n2)CC[C@H](NC(=O)c2sc4nc(C)ccc4c2N)C3)C[C@H]1N` [Example 344, 3-amino-N-[(6S)-2-[(3R,4S)-4-amino-3-(methoxymethyl)-3-methylpyrrolidin-1-yl]-5,6,7,8-tetrahydroquinolin-6-yl]-6-methylthieno[2,3-b]pyridine-2-carboxamide], the half-inhibitory concentration (IC50) lay within 200 to 2000 nM.
